The source of these data is US10961234B2, “Oxazole derivatives for use in the treatment of cancer” (LIFEARC, priority 2016, dated 2021).

The structures appear in SMILES notation.

Test [1] concerns wild type LM2 and CRISPR edited LM2. Nature of the test: Cell potency in CRISPR edited (PAICS knock-out) LM2 versus wild type LM2. Type of test: cell-based, human. The settings on record: CRISPR edited LM2 vs wild type LM2. Here is the method: Cas9 nuclease-mediated gene editing (Sander and Joung, 2014) was performed using a CRISPR RNA guide sequence ([…], PAM: AGG) targeting exon 3 in the human PAICS gene (accession number: NM_006452).
Stable cell clones were isolated and gene disruption confirmed by DNA sequencing and the absence of PAICS cellular protein expression confirmed by Western blotting.
A small set of compounds were tested against wild type LM2 and CRISPR edited LM2 to see to what extent the cellular potency was driven by PAICS mediated effects.

The target in another test is T1, WT full length PAICS (Homo sapiens, UniProt P22234).
T1 construct: 5 μl WT full length PAICS (final assay concentration, fac, 2.5 nM) in basic buffer
T1 sequence (P22234 1-425): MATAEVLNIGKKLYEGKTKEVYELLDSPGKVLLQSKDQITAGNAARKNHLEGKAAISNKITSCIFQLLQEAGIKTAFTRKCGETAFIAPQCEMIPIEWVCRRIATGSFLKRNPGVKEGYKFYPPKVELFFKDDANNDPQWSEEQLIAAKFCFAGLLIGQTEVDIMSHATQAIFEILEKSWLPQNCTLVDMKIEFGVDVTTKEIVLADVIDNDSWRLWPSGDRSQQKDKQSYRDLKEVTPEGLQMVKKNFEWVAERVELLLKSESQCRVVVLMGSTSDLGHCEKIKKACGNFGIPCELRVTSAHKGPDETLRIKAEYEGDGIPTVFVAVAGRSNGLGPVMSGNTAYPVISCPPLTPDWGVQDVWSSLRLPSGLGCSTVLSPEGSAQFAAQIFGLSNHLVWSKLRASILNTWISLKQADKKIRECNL
Nature of the test: Biochemical assay to measure PAICS activity (Transcreener ADP2 FI, SAICAR synthetase reaction). The settings on record: PAICS 2.5 nM, 30 mins pre-incubation, ADP detection by fluorescence intensity. Summed up: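 Enzyme (2.5 nM) pre-incubated 30 min RT with compound (top 1 mM or 30 μM, half-log 10-point, duplicate) in 50 mM Tris-HCl pH8, 0.5 mM EDTA; CAIR (10 μM, ~5 μM after 1 h AIR/CAIR equilibration with MgCl2/KHCO3) then ATP/aspartate (30 μM/180 μM) for 30 min RT. ADP read by Transcreener fluorescence intensity (590/617 nm).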

For test [2], the system named is LM2 and MDA-MB-231 breast cancer cell lines. Nature of the test: PAICS 2D cell proliferation assay. Type of test: cell-based. The settings on record: Homo sapiens; 72 hours incubation; cell line (LM2 or MDA-MB-231) not given. An outline of the steps: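 Cells seeded at 1000/well, dosed after 24 h with a 10-point ½-log series (top 100 μM, 1% DMSO final), then incubated 72 h at 37 °C. Dead cells measured by CellTox Green DNA staining and viability by CellTiter-Glo ATP luminescence, both expressed as % of controls (mean±SEM, duplicate curves).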

Turning to `CN(C)CCCOc1ncc(-c2ccc(Cl)c(NC(=O)c3coc(N)n3)c2)s1` [Example 86, 2-Amino-N-(2-chloro-5-{2-[3-(dimethylamino)propoxy]-1,3-thiazol-5-yl}phenyl)-1,3-oxazole-4-carboxamide], the “Potency shift: CRISPR Cell EC50/WT Cell EC50” value (shortened to “Potency shift”) in test [1] is listed as above 30. Moreover, at WT full length PAICS, the IC50 (commonly the concentration at which inhibition is half-maximal) was below 10 nM. For the same molecule, the EC50 – broadly, the midpoint of the concentration-response curve – in test [2] is below 100 nM.

Regarding `CN1CCN(c2ccc(-c3ccc(Cl)c(NC(=O)c4coc(N)n4)c3)cn2)CC1` [Example 37, 2-Amino-N-{2-chloro-5-[6-(4-methylpiperazin-1-yl)pyridin-3-yl]phenyl}-1,3-oxazole-4-carboxamide], the “Potency shift” value in test [1] was above 10. Also, the IC50 on WT full length PAICS was above 100 nM. In addition, the EC50 in test [2] fell in the range of 100 to 250 nM.

Take `Cc1nn(C2CCNCC2)cc1-c1ccc(Cl)c(NC(=O)c2coc(N)n2)c1` [Example 55, 2-Amino-N-(2-chloro-5-(3-methyl-1-(piperidin-4-yl)-1H-pyrazol-4-yl)phenyl)oxazole-4-carboxamide]: the IC50 against WT full length PAICS is 10 to 25 nM. The molecule also yielded an EC50 in test [2] of 100 to 250 nM.

Regarding `Nc1nc(C(=O)Nc2cc(-c3ccc(OCC4CCCNC4)nc3)ccc2Cl)co1` (stereo not drawn) [Example 69, 2-Amino-N-(2-chloro-5-(6-(piperidin-3-ylmethoxy)pyridin-3-yl)phenyl)oxazole-4-carboxamide], the IC50 at WT full length PAICS was 10 to 25 nM. In test [2], the EC50 was 250 to 500 nM.

For the molecule `CCNCCCn1cc(-c2ccc(Cl)c(NC(=O)c3coc(N)n3)c2)cn1` [Example 47, 2-Amino-N-(2-chloro-5-(1-(3-(ethylamino)propyl)-1H-pyrazol-4-yl)phenyl)oxazole-4-carboxamide], the “Potency shift” value in test [1] is above 80. For the same molecule, the IC50 at WT full length PAICS was in the range of 10 to 25 nM. The molecule further yielded an EC50 in test [2] below 100 nM.

In turn, `CNC1CCN(Cc2ncc(-c3ccc(Cl)c(NC(=O)c4coc(N)n4)c3)s2)CC1` [Example 91, 2-Amino-N-[2-chloro-5-(2-{[4-(methylamino)piperidin-1-yl]methyl}-1,3-thiazol-5-yl)phenyl]-1,3-oxazole-4-carboxamide] returned an IC50 against WT full length PAICS below 10 nM. In test [2], the EC50 was below 100 nM.
